Assay results from patent publication US8987335B2, “Substituted (E)-N′-(1-phenylethylidene)benzohydrazide analogs as histone demethylase inhibitors” (University of Utah Research Foundation, priority 2011, dated 2015).

Experiments:
LSD1 = LSD1 (Homo sapiens (Human), UniProt O60341); experiment: LSD1 Histone Demethylase Assay (LSD1 Inhibitor Screening Assay Kit); format: biochemical; conditions: for LSD1 biochemical activity (in words): SAR discussion
Description: Briefly, test compounds were diluted to 20× the desired test concentration in 100% DMSO and 2.5 μL of the diluted drug sample was added to a black 384-well plate. The LSD1 enzyme stock was diluted 17-fold with assay buffer and 40 μM of the diluted LSD1 enzyme was added to the appropriate wells.
(§1) IC50 values are determined using GraphPad Prism 5 software. The data were entered as an X-Y plot into the software as percent inhibition for each concentration of the drug. The concentration values of the drug were log transformed and the nonlinear regression was carried out using the “sigmoidal dose-response (variable slope)” option within the GraphPad software to model the data and calculate IC50 values.

T-47D cells = experiment: Cell Viability Assay (ATPlite), T-47D; format: cell-based; conditions: Homo sapiens, T47D, 96-hours of incubation, read-out: Cell Growth, IC50
Description: Cells were cultured according to the procedures provided. […] Cells were cultured at 37° C. and 5% CO2.
as §1

MAO A = MAO A (Homo sapiens (Human), UniProt P21397); experiment: Monoamine Oxidase assay (MAO-Glo), MAO A; format: biochemical
Chain of MAO A (P21397 whole entry): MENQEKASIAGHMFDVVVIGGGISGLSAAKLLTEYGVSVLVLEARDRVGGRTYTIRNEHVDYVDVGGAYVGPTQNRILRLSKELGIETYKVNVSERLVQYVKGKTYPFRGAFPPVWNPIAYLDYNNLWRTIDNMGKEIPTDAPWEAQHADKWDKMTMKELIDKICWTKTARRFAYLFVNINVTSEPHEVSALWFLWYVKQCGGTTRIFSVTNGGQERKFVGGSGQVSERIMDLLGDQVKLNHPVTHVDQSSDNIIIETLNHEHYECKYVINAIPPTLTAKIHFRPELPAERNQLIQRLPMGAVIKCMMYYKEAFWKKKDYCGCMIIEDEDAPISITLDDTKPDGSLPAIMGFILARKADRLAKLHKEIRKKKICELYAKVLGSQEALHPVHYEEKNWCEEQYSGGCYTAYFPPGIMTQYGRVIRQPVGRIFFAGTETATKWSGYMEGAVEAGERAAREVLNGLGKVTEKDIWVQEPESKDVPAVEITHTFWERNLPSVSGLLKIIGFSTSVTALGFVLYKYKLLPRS
Description: (§2) Recombinant (expressed in baculovirus infected BTI insect cells) monoamine oxidase A and monoamine oxidase B (Catalog No. M7316 and M7441, respectively) were purchased from Sigma-Aldrich Co. LLC. […] MAO-Glo™ Assay Kit was purchased from Promega Corporation (Madison, Wis.).
(§3) Briefly, 6.25 μL of test compound was added to each well of a 384-well plate. Enzyme (either MAO A or B) was added (12.5 μL in 2× buffer containing 1 μg protein) and allowed to incubate for 5 minutes. Finally, 6.25 μL of 4×MAO substrate was added to each well. Following a one hour incubation, 25 μL of Luciferin detection reagent was added to each well, and incubated for 20 minutes. Luminescence was then measured on an Envision microplate reader.
as §1

MAO B = MAO B (Homo sapiens (Human), UniProt P27338); experiment: Monoamine Oxidase assay (MAO-Glo), MAO B; format: biochemical
Chain of MAO B (P27338 whole entry): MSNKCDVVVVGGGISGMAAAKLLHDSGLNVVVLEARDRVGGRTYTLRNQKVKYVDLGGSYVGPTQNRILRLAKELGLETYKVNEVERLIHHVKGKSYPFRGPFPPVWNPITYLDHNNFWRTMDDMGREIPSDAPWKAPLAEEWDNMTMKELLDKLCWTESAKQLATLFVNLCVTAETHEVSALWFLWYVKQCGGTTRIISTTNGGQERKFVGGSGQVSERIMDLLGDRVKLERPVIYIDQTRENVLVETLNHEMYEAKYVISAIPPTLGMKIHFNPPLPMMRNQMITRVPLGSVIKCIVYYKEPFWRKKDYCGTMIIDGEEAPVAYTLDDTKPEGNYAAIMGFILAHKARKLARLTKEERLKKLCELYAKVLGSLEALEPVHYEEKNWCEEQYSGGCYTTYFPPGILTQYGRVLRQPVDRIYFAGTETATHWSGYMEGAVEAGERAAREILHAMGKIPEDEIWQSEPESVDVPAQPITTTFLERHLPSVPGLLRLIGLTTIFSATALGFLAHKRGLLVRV
Description: as §2, §3, §1

MDA-MB-235 = experiment: Cell Viability Assay (ATPlite), MDA-MB-235; format: cell-based; conditions: 96-hours of incubation, read-out: Cell Growth, IC50
Description: Cancer cell lines were obtained from ATCC. Cells were cultured according to the procedures provided. In addition to the supplements indicated in Table 4, media were also supplemented with 1% penicillin/streptomycin (100 IU/mL penicillin and 100 μg/mL streptomycin). Cells were cultured at 37° C. and 5% CO2. ATCC is the American Type Culture Collection (Manassas, Va.).
Cell viability was determined using ATPlite™ Luminescence Assay System (PerkinElmer Inc., Waltham, Mass.) using the various cell-lines described above and in Table 4. Briefly, cells were seeded in 96-well plates and then treated with different concentrations of inhibitor (0.1% final DMSO concentration). After 96-hours of incubation, ATPlite detection reagent was added directly to the culture well. Luminescence was read 5 minutes later on an Envision microplate reader.

SMILES	LSD1 biochemical activity (in words) (LSD1)	IC50 (T-47D cells) [nM]	further results
C/C(=N\NC(=O)c1cccc(S(=O)(=O)N2CCOCC2)c1)c1ccnc(Cl)c1 [Compound 15, (E)-N′-(1-(2-chloropyridin-4-yl)ethylidene)-3-(morpholinosulfonyl)benzohydrazide]	drop in biochemical activity	> 10000	–
COc1ccc(Cl)cc1C(=O)NNC(=O)c1cc(S(=O)(=O)N2CCOCC2)ccc1F [Compound 6]	lack of biochemical activity	> 10000	–
N[C@@H]1CC1c1ccccc1 (stereo partly drawn) [tranylcypromine, reference compound]	–	–	activity against MAO A (in words) (MAO A): exhibited activity; activity against MAO B (in words) (MAO B): exhibited activity
C/C(=N\NC(=O)c1cccc(S(=O)(=O)N2CCOCC2)c1)c1cc(Cl)ccc1O [Compound 12, (E)-N′-(1-(5-chloro-2-hydroxyphenyl)ethylidene)-3-(morpholinosulfonyl)benzohydrazide]	–	–	IC50 (MAO A): > 300000 nM; IC50 (MAO B): > 300000 nM; IC50 (MDA-MB-235): 728 nM
C/C(=N\NC(=O)c1cccc(S(=O)(=O)N2CCOCC2)c1)c1cccc2ccccc12 [Compound 10]	lower activity	> 10000	IC50 (LSD1): > 10000 nM
CCN(CC)S(=O)(=O)c1ccc(F)c(C(=O)NNC(=O)c2ccc(C)cc2)c1 [Compound 8]	lower activity	> 10000	–
CC/C(=N\NC(=O)c1cccc(S(=O)(=O)N2CCOCC2)c1)c1cc(Cl)ccc1O [Compound 21, (E)-N′-(1-(5-chloro-2-hydroxyphenyl)propylidene)-3-(morpholinosulfonyl)benzohydrazide]	–	616	–
C/C(=N\NC(=O)c1cncc(Cl)c1)c1cc(Cl)ccc1O [Compound 20, (E)-5-chloro-N′-(1-(5-chloro-2-hydroxyphenyl)ethylidene)nicotinohydrazide]	drop in biochemical activity	270	–
C/C(=N\NC(=O)c1ccc(Cl)c(Br)c1)c1cc(Cl)ccc1O [Compound 17, (E)-3-bromo-4-chloro-N′-(1-(5-chloro-2-hydroxyphenyl)ethylidene)benzohydrazide]	drop in biochemical activity	1700	–
C/C(=N\NC(=O)c1cnc(Cl)c(Br)c1)c1cc(Cl)ccc1O [Compound 19, (E)-5-bromo-6-chloro-N′-(1-(5-chloro-2-hydroxyphenyl)ethylidene)nicotinohydrazide]	drop in biochemical activity	1380	–
C/C(=N\NC(=O)c1cncc(S(C)(=O)=O)c1)c1cc(Cl)ccc1O [Compound 24, (E)-N′-(1-(5-chloro-2-hydroxyphenyl)ethylidene)-5-(methylsulfonyl)nicotinohydrazide]	–	–	activity against MAO A (in words) (MAO A): no activity; activity against MAO B (in words) (MAO B): no activity
C/C(=N\NC(=O)c1cccc(S(=O)(=O)N2CCOCC2)c1)c1cccnc1 [Compound 22, (E)-3-(morpholinosulfonyl)-N′-(1-(pyridin-3-yl)ethylidene)benzohydrazide]	drop in biochemical activity	–	–
C/C(=N\NC(=O)c1cccc(S(=O)(=O)N2CCOCC2)c1)c1cc(Cl)ccc1Cl [Compound 16, (E)-N′-(1-(2,5-dichlorophenyl)ethylidene)-3-(morpholinosulfonyl)benzohydrazide]	significant drop in activity	> 10000	LSD1 biochemical activity (in words) (LSD1; listed as compound 16): activity was decreased
O=C(N/N=C/c1ccccc1O)c1ccc(O)cc1 [Compound 1]	–	–	activity against MAO A (in words) (MAO A): no activity; activity against MAO B (in words) (MAO B): comparable activity to tranylcypromine
O=C(NNC(=O)c1cc(S(=O)(=O)N2CCOCC2)ccc1F)c1cccc(Cl)c1 [Compound 7]	–	> 10000	–
